From US20120035265A1, “COMPOSITIONS, METHODS, AND DEVICES FOR THE TREATMENT OF DYSMENORRHEA” (MediciNova, Inc., priority 2010, published 2012) come the findings set out here.

In assay [1] the test system is uterine muscle isolated from pregnant rats. In words: Interaction of MN-221 and β-adrenoceptor antagonists on spontaneous contraction of uterine muscle isolated from pregnant rats (Schild regression). The assay is classed as cell-based, rat. The procedure: The experimental operation of this study was as reported by T. Kawarabayashi et al.^4. After each SD-strain rat on Day 21 of pregnancy was exsanguinated to death, the uterus was isolated to prepare 8 myometrial samples (about 4 mm×10 mm) in the direction of the longitudinal muscle, with the adhesion to the placenta being avoided. Each myometrial sample was suspended with a load of about 1.0 g in an organ bath containing 10 mL of the Locke-Ringer solution at 37° C. […] After the suspended samples became stable for the amplitude and frequency of spontaneous contraction, each antagonist or distilled water was added to the bath to pretreat them for about 15 minutes. […] The contractile force of each sample was outputted through a force displacement transducer to a strain pressure amplifier and recorded with a rectigraph.
Any variable point (peak) with amplitude (tension) of 0.2 g or lower was excluded from analysis. Samples meeting any of the following criteria were rejected or removed from analysis.
Microsoft® Excel 2000 (Microsoft Corp.) was used for summing up or calculating data and preparing figures and tables. […] This EC50 value was used to calculate the concentration ratio (CR) of EC50 when an antagonist was added (for each sample) to that when no antagonist was added (mean value of the whole control group) and the logarithmic value of CR-1 (log [CR-1]).
Then, the added concentration of the antagonist was plotted on the X axis (logarithmic value) and log(CR-1) on the Y axis (Schild plot) to calculate the value of the X-axis intercept (pA2) and slope of the line using linear approximation (Schild regression^5). The slope was statistically compared with a slope of 1 (paired t-test; a probability level of less than 5% was considered significant). […] The mean and standard error were calculated for each data point obtained and indicated to two decimal places (or in 3 significant digit).

Assay [2] deals with uterine activity of anesthetized pregnant rats. The assay is described as follows: Uterine motility of anesthetized pregnant rats (balloon method). The assay is classed as in vivo, rat. To be noted: uterine motility, intravenous cumulative dosing every 15 minutes, urethane-anesthetized pregnant rats. The procedure: Rats were anesthetized with urethane, and experiments were conducted based on balloon method. Uterine activity and mean blood pressure of dam were led to a pressure amplifier via a pressure transducer. As for heart rate, pulse waves were led to tachometer. Recti-graphs were used for recording. The test substance, control substance, or positive control substance was administered intravenously and cumulatively every 15 minutes, while doses were increased gradually.

The subject of assay [3] is uterine muscles isolated from pregnant rabbits. In words: Spontaneous contractions of isolated uterine muscles of pregnant rabbits (organ bath). The assay is classed as cell-based, rabbit. The settings on record: spontaneous contractions, pregnant rabbit uterine muscles; for EC50: Oryctolagus cuniculus, read-out: pD2 values (converted). As to the method:
Uterine muscles of pregnant rabbits were isolated, and experiments were conducted based on organ-bath method. After specimens of uterine muscles were suspended and spontaneous contractions was stabilized, the test substance, control substance or positive control substance was administered every 10 min, while doses were increased gradually. Efficacy of drugs was evaluated by comparing the sum of uterine contraction for 10 min before and after administration of drugs, defining the former as 100%.

Assay [4] shares this test system. In words: Oxytocin-induced contractions of isolated uterine muscles of pregnant rabbits (organ bath). The assay is classed as cell-based, rabbit. The settings on record: oxytocin (1 mU/mL)-induced contractions, pregnant rabbit uterine muscles; for EC50: Oryctolagus cuniculus, read-out: pD2 values (converted). As to the method: Uterine muscles of pregnant rabbits were isolated, and experiments were conducted based on organ-bath method. After specimens of uterine muscles were suspended and oxytocin (1 mU/mL)-induced contractions was stabilized, the test substance, control substance or positive control substance was administered every 10 min, while doses were increased gradually. Efficacy of drugs was evaluated by comparing the sum of uterine contraction for 10 min before and after administration of drugs, defining the former as 100%.

Assay [5] concerns uterine muscle isolated from pregnant rats. In words: Spontaneous contractions of uterine muscle isolated from pregnant rats (organ bath). The assay is classed as cell-based. To be noted: pregnant rat uterine muscle, mean ± standard error, 10 samples. The procedure: The experimental operation of this study was as reported by T. Kawarabayashi et al.^1 After each SD-strain rat on Day 21 of pregnancy were exsanguinated to death, the uterus was isolated to prepare up to 8 myometrial strips (about 4 mm×10 mm) in the direction of the longitudinal muscle, with the adhesion to the placenta being avoided.
Each myometrial strip was suspended in an organ bath containing 10 mL of a Locke-Ringer solution at 37° C. (aerated with 95% O2+5% CO2 gas) with a load of about 1.0 g. After the amplitude and frequency of the muscular spontaneous contractions became stable, distilled water was added. Five minutes later, the test, control, or positive control substance was added cumulatively with intervals of 5 minutes. The myometrial contractile force was delivered to a strain pressure amplifier through a force displacement transducer and recorded on a Rectigraph.
Considering the sum of the uterine contraction during 5 minutes after the addition of distilled water as 100%, the response rate to each concentration of the test, control, or positive control substance was calculated from the sum of the uterine contraction after each was added. Variable points (peaks) with amplitude (tension) of 0.2 g or lower were excluded from analysis. Samples showing any of the following events were not used for the study or excluded from analysis.
Microsoft® Excel 2000 (Microsoft Corp.) was used to sum up and analyze data and prepare tables and figures. Using a concentration-response curve obtained for each sample (X axis: log value of the concentration of the drug added, Y axis: response rate), a negative log value (pD2) of the concentration that inhibited the uterine contraction by 50% (EC50) was calculated from a straight line that connects the 2 concentrations above and below 50%, and converted to EC50.

Assay [6] shares this test system. In words: PG F2α-induced contraction of uterine muscle isolated from pregnant rats. The settings on record: contraction induced with 5 μg/mL of PG F2α, mean ± standard error of 10 samples. The assay is classed as cell-based, rat. As to the method:
(§1) After SD-strain rats on Day 17 of pregnancy were exsanguinated to death, the uterus was isolated to prepare up to 8 myometrial strips (about 4 mm×10 mm) per animal in the direction of the longitudinal muscle while avoiding the adhesion to the placenta. Each strip was suspended in an organ bath containing 10 mL of a modified Locke-Ringer solution at […] (aerated with 95% O2+5% CO2 gas) with a load of about 1.0 g. After the suspended sample became stable for static tension, 5 μg/mL of PG F2α or 1 mU/mL of oxytocin was added to induce contraction. After the sample was allowed to stand for at least 30 minutes to confirm stable rhythmic contraction for frequency and amplitude, the test, control, or positive control substance solution was added cumulatively at intervals of 5 minutes. After the treatment was completed, 1×10^−5 mol/L of forskolin was added to obtain maximal relaxation. The contractile force of the uterine sample was delivered via a force displacement transducer to a strain pressure amplifier and recorded on a Rectigraph.
(§2) Considering the sum of the uterine contraction for 5 minutes before treatment as 100%, the response rate to each concentration of the test, control, or positive control substance solution was calculated from the sum of uterine contraction after treatment for both PG F2α and oxytocin induced contraction. Then, the response rates obtained were used to prepare a concentration-response curve for each sample. The maximum relaxation obtained by adding forskolin was considered as a baseline. Variable points (peaks) with amplitude (tension) of […] or lower were excluded from analysis. Samples showing any of the following events were not used for the study or excluded from analysis.
(§3) Microsoft® Excel 2000 (Microsoft Corp.) was used to sum up and calculate data and prepare tables and figures. Using a concentration-response curve prepared for each sample (X axis: log value of the concentration of the substance added, Y axis: response rate), a negative log value (pEC50) of the concentration that inhibited the uterine contraction by 50% (EC50) was calculated from a straight line connecting the 2 concentrations just above and below 50%, and then converted to EC50 (unit: mol/L).

The test system is the same in assay [7]. In words: Oxytocin-induced contraction of uterine muscle isolated from pregnant rats. The assay is classed as cell-based, rat. The settings on record: contraction induced with 1 mU/mL of oxytocin, mean ± standard error of 10 samples. The procedure:
as §1, §2, §3

The mark [8] stands for this setting: Rattus norvegicus, read-out: EC50.
Setting [9] is: Rattus norvegicus, read-out: pEC50 (converted).

Counter-ions that a name gives are not always drawn.

Take `Cn1cc(C(F)(F)F)nc1-c1ccc(OCC(O)CNCCOc2ccc(O)c(C(N)=O)c2)cc1` (stereo not shown) [CGP 20712A, reference compound]: in assay [1] (at a concentration of up to 1×10^−8 mol/L), the “antagonistic effect on the effect of MN-221” value is listed as “no evident antagonistic effect”.

In the case of `CCc1ccccc1OC[C@@H](O)CN[C@H]1CCCc2ccccc21` [SR 59230A, reference compound], the “antagonistic effect on the effect of MN-221” value in assay [1] (at a concentration of up to 3×10^−8 mol/L) is recorded as “no evident antagonistic effect”.

`CC(C)(C)NC[C@H](O)c1ccc(O)cc1Cl.O=C(O)C(O)C(O)C(=O)O` [HSR-81, meluadrine tartrate] yielded an ED30 values in assay [2] of 0.56 µg/kg/min. Besides, the pD2 values in assay [3] was determined as 8.21 ± 0.26; in assay [4], 8.12 ± 0.21.

Turning to `CC(C)(C)NCC(O)c1cc(O)cc(O)c1` (stereo not shown) [Terbutaline sulfate, terbutaline sulfate], the ED30 values in assay [2] was found to be 0.72 µg/kg/min. For the same molecule, the EC50 is 89.1 nM in assay [3] and 40.7 nM in assay [4].

In the case of `CC(NCCc1ccc(O)cc1)C(O)c1ccc(O)cc1` (racemic) [Ritodrine hydrochloride, (±)-erythro-1-(p-hydroxyphenyl)-2-[2-(p-hydroxyphenyl)ethylamino]-1-propanol hydrochloride], the EC50 in assay [5] (read-out: EC50) was 39.8 ± 13.3 nM; in assay [5] (read-out: pD2 (converted)) it was 25.7 nM; in assay [6] (setting [8]), 3430 ± 720 nM; in assay [6] (setting [9]) it was 2630 nM; in assay [7] (setting [8]), 133 ± 16.8 nM; in assay [7] (setting [9]), 120 nM. In addition, the figures for the EC50 in assay [3] and in assay [4] were 135 nM and 77.6 nM, respectively. The same molecule registered an ED30 values in assay [2] of 51.45 µg/kg/min.

isoproterenol bitartrate gave a pD2 in assay [5] of 9.52±0.13. Further, the results for the EC50 in assay [5] (read-out: EC50), in assay [6] (read-out: EC50) and in assay [7] (read-out: EC50) were 0.42 ± 0.1 nM, 5.1 ± 0.633 nM and 0.556 ± 0.0412 nM, respectively. In addition, the figures for the pEC50 in assay [6] and in assay [7] were 8.32±0.05 and 9.27±0.03, respectively. The results for the pD2 values in assay [3] and in assay [4] were 8.69 ± 0.17 and 8.53 ± 0.21, respectively.
